Measurements reported in patent US20240109917A1 (ACTELION PHARMACEUTICALS LTD, priority 2020, published 2024).
Where two headings read alike, the source gives them in different places.

Columns and labels:
[1] = target: Tb-labeled inactive PDGFRβ (Homo sapiens (Human), UniProt P09619); test: PDGFRβ LanthaScreen Assay; type: binding; conditions: read-out: PDGFR Lantha IC50
PDGFRβ = PDGFRβ (Rattus norvegicus (Rat), UniProt Q05030); test: PDGFRβ Cellular Assay (PDGFRb P-Y751 HTRF in A10 cells stimulated with PDGF-BB); type: cell-based
How it was run: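 Rat A10 cells, plated overnight, were treated with compound for 3 hours, then stimulated with PDGF-BB (working stock 100 ng/mL in 10% FBS medium). After lysis, PDGFRβ P-Y751 was detected by HTRF.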

VEGFR2, unphosphorylated = VEGFR2, unphosphorylated (Homo sapiens (Human), UniProt P35968); test: VEGFR ADP GLO Assay; type: biochemical
VEGFR2, unphosphorylated, sequence (P35968 20-1356): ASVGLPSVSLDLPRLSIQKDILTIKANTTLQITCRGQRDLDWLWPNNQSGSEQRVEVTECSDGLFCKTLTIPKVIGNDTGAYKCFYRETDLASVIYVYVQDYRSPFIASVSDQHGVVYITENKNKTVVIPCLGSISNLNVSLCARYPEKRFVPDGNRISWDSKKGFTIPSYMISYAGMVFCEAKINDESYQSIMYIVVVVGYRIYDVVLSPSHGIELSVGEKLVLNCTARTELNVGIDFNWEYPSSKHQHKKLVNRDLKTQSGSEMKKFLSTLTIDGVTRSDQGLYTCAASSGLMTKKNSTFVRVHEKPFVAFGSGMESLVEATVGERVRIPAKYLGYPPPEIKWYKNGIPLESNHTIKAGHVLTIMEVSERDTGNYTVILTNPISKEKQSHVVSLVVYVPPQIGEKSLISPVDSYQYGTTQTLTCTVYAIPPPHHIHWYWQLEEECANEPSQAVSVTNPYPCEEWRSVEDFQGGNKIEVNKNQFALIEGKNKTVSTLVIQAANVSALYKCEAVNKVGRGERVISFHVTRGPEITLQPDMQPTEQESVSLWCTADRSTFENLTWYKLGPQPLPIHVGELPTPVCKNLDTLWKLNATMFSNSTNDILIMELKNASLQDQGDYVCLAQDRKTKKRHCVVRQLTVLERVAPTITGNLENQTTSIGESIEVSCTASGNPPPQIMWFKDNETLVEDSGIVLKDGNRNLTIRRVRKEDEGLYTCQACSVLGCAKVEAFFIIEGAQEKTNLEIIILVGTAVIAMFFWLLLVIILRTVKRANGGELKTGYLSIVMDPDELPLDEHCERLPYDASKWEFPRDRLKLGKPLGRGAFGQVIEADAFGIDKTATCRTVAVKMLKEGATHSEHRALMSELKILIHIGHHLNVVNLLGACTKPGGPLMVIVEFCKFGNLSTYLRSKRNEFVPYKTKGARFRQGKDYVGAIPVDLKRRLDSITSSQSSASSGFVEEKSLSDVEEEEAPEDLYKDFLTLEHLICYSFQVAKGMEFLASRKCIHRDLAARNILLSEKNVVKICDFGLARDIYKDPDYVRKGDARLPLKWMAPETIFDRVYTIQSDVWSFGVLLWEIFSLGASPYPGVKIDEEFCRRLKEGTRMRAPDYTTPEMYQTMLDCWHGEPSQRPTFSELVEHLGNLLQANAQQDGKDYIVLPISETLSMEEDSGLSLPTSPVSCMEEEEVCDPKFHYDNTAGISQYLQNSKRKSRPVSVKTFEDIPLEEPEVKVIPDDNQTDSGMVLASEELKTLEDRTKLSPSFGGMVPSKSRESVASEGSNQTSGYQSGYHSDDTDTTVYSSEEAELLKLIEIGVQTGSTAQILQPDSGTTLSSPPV

PDGFRβ, sequence (Q05030 32-1097): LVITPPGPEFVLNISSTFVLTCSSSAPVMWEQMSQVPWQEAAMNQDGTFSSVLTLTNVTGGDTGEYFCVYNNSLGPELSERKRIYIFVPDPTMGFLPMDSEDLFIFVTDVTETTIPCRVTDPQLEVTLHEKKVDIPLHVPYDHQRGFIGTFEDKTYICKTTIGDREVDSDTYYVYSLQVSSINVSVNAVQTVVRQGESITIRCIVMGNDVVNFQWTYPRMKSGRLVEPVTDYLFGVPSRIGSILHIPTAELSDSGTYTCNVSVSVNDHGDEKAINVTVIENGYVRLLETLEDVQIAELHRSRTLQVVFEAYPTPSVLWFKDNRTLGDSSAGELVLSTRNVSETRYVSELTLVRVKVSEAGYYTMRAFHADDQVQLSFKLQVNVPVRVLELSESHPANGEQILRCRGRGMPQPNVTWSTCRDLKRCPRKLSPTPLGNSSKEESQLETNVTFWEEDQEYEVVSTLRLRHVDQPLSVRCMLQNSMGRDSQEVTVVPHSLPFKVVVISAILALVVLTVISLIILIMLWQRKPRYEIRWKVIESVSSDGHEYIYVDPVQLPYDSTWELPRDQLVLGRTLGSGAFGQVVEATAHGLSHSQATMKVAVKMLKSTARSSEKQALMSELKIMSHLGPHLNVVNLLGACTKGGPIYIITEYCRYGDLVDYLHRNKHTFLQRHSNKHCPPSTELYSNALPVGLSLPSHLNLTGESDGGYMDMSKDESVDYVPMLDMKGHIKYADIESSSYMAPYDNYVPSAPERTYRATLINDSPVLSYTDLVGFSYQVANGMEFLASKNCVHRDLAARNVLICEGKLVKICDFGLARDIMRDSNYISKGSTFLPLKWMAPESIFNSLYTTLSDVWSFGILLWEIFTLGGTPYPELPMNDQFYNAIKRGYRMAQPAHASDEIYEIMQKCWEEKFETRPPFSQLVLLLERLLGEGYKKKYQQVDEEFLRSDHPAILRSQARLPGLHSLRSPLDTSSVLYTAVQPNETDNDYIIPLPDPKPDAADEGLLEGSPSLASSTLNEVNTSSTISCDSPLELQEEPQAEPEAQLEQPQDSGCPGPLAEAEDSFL
Tb-labeled inactive PDGFRβ, sequence (P09619 33-1106): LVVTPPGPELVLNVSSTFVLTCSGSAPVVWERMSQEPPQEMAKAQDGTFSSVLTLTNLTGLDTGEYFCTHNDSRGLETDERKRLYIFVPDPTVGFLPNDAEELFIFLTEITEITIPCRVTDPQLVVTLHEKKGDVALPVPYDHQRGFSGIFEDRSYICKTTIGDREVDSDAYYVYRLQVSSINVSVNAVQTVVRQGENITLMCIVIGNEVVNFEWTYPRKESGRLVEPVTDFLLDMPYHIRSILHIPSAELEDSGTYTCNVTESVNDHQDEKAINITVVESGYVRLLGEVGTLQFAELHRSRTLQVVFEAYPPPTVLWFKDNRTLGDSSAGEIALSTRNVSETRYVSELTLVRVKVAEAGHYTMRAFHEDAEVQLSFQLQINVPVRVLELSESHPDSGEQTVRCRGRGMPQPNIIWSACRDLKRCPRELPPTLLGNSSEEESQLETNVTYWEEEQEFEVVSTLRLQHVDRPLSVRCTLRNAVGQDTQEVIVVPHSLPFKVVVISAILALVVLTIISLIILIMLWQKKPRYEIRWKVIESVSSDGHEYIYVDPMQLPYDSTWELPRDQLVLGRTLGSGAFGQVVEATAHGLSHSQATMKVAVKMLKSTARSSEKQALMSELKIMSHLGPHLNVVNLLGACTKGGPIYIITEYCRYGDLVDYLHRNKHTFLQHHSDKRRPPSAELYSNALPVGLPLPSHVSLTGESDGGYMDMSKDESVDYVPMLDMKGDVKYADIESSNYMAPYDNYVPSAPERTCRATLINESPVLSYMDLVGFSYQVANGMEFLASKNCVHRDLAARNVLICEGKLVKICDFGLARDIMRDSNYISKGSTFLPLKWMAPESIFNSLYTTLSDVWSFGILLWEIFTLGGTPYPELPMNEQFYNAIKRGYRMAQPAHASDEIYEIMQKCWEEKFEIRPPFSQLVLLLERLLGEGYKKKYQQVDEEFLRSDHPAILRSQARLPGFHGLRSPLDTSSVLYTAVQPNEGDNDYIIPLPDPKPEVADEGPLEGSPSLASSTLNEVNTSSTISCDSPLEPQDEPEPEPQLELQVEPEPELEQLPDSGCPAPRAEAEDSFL

SMILES | IC50 [1] [nM] | IC50 (PDGFRβ; read-out: PDGFR Cellular IC50) [nM] | IC50 (VEGFR2, unphosphorylated) [nM] | IC50 (PDGFRβ; PDGFR Cellular IC50) [nM]
Cc1cc(C(=O)NCCN2CCCC2(C)C)sc1NC(=O)c1cnn2cc(-c3ccncc3)sc12 [Example 187, N-(5-((2-(2,2-dimethylpyrrolidin-1-yl)ethyl)carbamoyl)-3-methylthiophen-2-yl)-2-(pyridin-4-yl)pyrazolo[5,1-b]thiazole-7-carboxamide] | 1190 | 1020 | > 7500 | –
Cc1cc(C(=O)NCCN2CCc3ccccc3C2)sc1NC(=O)c1cnn2cc(-c3cnn(C)c3)sc12 [Example 204, N-(5-((2-(3,4-dihydroisoquinolin-2 (1H)-yl)ethyl)carbamoyl)-3-methylthiophen-2-yl)-2-(1-methyl-1H-pyrazol-4-yl)pyrazolo[5,1-b]thiazole-7-carboxamide] | 420 | 460 | > 7500 | –
Cc1cc(C(=O)NCCN2CC[C@@H](O)C2)sc1NC(=O)c1cnn2cc(-c3cnn(C)c3)sc12 [Example 194, (R)—N-(5-((2-(3-hydroxypyrrolidin-1-yl)ethyl)carbamoyl)-3-methylthiophen-2-yl)-2-(1-methyl-1H-pyrazol-4-yl)pyrazolo[5,1-b]thiazole-7-carboxamide] | > 3000 | > 3000 | 2040 | –
Cc1cc(C(=O)NCCN2CCCC2(C)C)sc1NC(=O)c1cnn2cc(-c3cnn(C)c3)sc12 [Example 182, N-(5-((2-(2,2-dimethylpyrrolidin-1-yl)ethyl)carbamoyl)-3-methylthiophen-2-yl)-2-(1-methyl-1H-pyrazol-4-yl)pyrazolo[5,1-b]thiazole-7-carboxamide] | 1980 | 1680 | > 7500 | –
Cc1ncc(NC(=O)CCCN2CCC23CCC3)cc1NC(=O)c1cnn2cc(-c3cnn(C)c3)sc12 [Example 215, N-(5-(4-(1-azaspiro[3.3]heptan-1-yl)butanamido)-2-methylpyridin-3-yl)-2-(1-methyl-1H-pyrazol-4-yl)pyrazolo[5,1-b]thiazole-7-carboxamide] | 16.8 | – | > 7500 | 80.1
Cc1cc(C(=O)NCCN2CCC(O)CC2)sc1NC(=O)c1cnn2cc(-c3cnn(C)c3)sc12 [Example 191, N-(5-((2-(4-hydroxypiperidin-1-yl)ethyl)carbamoyl)-3-methylthiophen-2-yl)-2-(1-methyl-1H-pyrazol-4-yl)pyrazolo[5,1-b]thiazole-7-carboxamide] | > 3000 | > 3000 | > 7500 | –
Cc1ncc(C(=O)NCCN2CCCC2)cc1NC(=O)c1cnn2cc(-c3cnn(CC(O)CO)c3)sc12 (stereo not drawn) [Example 225, 2-(1-(2,3-Dihydroxypropyl)-1H-pyrazol-4-yl)-N-(2-methyl-5-((2-(pyrrolidin-1-yl)ethyl)carbamoyl)pyridin-3-yl)pyrazolo[5,1-b]thiazole-7-carboxamide] | 12.2 | > 2000 | > 7500 | –
Cc1ncc(NC(=O)CN2CCN(C)CC2)cc1NC(=O)c1cnn2cc(-c3cnn(C)c3)sc12 [Example 232, 2-(1-methyl-1H-pyrazol-4-yl)-N-(2-methyl-5-(2-(4-methylpiperazin-1-yl)acetamido)pyridin-3-yl)pyrazolo[5,1-b]thiazole-7-carboxamide] | 751 | 1730 | > 7500 | –
COc1ncccc1-c1cn2ncc(C(=O)Nc3cc(C(=O)NCCN4CCCC4(C)C)cnc3C)c2s1 [Example 226, N-(5-((2-(2,2-Dimethylpyrrolidin-1-yl)ethyl)carbamoyl)-2-methylpyridin-3-yl)-2-(2-methoxypyridin-3-yl)pyrazolo[5,1-b]thiazole-7-carboxamide] | 1.3 | 3.2 | > 2500 | –
Cc1ncc(C(=O)NCCN2CCCC2)cc1NC(=O)c1cnn2cc(-c3cn(C)nc3C(F)(F)F)sc12 [Example 227, 2-(1-Methyl-3-(trifluoromethyl)-1H-pyrazol-4-yl)-N-(2-methyl-5-((2-(pyrrolidin-1-yl)ethyl)carbamoyl)pyridin-3-yl)pyrazolo[5,1-b]thiazole-7-carboxamide] | 21.3 | 438 | > 833 | –
Cc1ncc(C(=O)NCCN2C[C@H]3CC[C@@H]2C3)cc1NC(=O)c1cnn2cc(-c3cnn(C)c3C)sc12 [Example 208, N-(5-((2-((1R,4S)-2-azabicyclo[2.2.1]heptan-2-yl)ethyl)carbamoyl)-2-methylpyridin-3-yl)-2-(1,5-dimethyl-1H-pyrazol-4-yl)pyrazolo[5,1-b]thiazole-7-carboxamide] | 4.3 | 96 | > 7500 | –
Cc1ncc(C(=O)NCCN2CCCC23CCC3)cc1NC(=O)c1cnn2cc(-c3c(C)nn(C)c3C)sc12 [Example 214, N-(5-((2-(5-azaspiro[3.4]octan-5-yl)ethyl)carbamoyl)-2-methylpyridin-3-yl)-2-(1,3,5-trimethyl-1H-pyrazol-4-yl)pyrazolo[5,1-b]thiazole-7-carboxamide] | 1.8 | 3.9 | > 7500 | –
Cc1cc(C(=O)NCCN2CC[C@H](O)C2)sc1NC(=O)c1cnn2cc(-c3cnn(C)c3)sc12 [Example 195, (S)—N-(5-((2-(3-hydroxypyrrolidin-1-yl)ethyl)carbamoyl)-3-methylthiophen-2-yl)-2-(1-methyl-1H-pyrazol-4-yl)pyrazolo[5,1-b]thiazole-7-carboxamide] | > 3000 | > 3000 | > 7500 | –
Cc1ncc(C(=O)NCCN2CCCC2(C)C)cc1NC(=O)c1cnn2cc(-c3cnn(CCC(O)CO)c3)sc12 (stereo not drawn) [Example 221, 2-(1-(3,4-Dihydroxybutyl)-1H-pyrazol-4-yl)-N-(5-((2-(2,2-dimethylpyrrolidin-1-yl)ethyl)carbamoyl)-2-methylpyridin-3-yl)pyrazolo[5,1-b]thiazole-7-carboxamide] | 7.1 | 1710 | > 7500 | –
Cc1ncc(C(=O)NCCN2CCCC2(C)C)cc1NC(=O)c1cnn2cc(-c3c(C)n[nH]c3C)sc12 [Example 231, 2-(3,5-Dimethyl-1H-pyrazol-4-yl)-N-(5-((2-(2,2-dimethylpyrrolidin-1-yl)ethyl)carbamoyl)-2-methylpyridin-3-yl)pyrazolo[5,1-b]thiazole-7-carboxamide] | 3.3 | 73.1 | > 7500 | –
Cc1cc(C(=O)NCCN2CCCC2(C)C)sc1NC(=O)c1cnn2cc(-c3cncnc3)sc12 [Example 185, N-(5-((2-(2,2-dimethylpyrrolidin-1-yl)ethyl)carbamoyl)-3-methylthiophen-2-yl)-2-(pyrimidin-5-yl)pyrazolo[5,1-b]thiazole-7-carboxamide] | > 3000 | 42.6 | > 7500 | –
Cc1ncc(C(=O)NCCN2CC3CCC2CC3)cc1NC(=O)c1cnn2cc(-c3cnn(C(F)F)c3)sc12 [Example 180, N-(5-((2-(2-azabicyclo[2.2.2]octan-2-yl)ethyl)carbamoyl)-2-methylpyridin-3-yl)-2-(1-(difluoromethyl)-1H-pyrazol-4-yl)pyrazolo[5,1-b]thiazole-7-carboxamide] | 6.1 | – | > 7500 | 38.4
Cc1ncc(NC(=O)CN2CCc3cnn(C)c3C2)cc1NC(=O)c1cnn2cc(-c3cnn(C)c3)sc12 [Example 17, 2-(1-methyl-1H-pyrazol-4-yl)-N-(2-methyl-5-(2-(1-methyl-4,5-dihydro-1H-pyrazolo[3,4-c]pyridin-6 (7H)-yl)acetamido)pyridin-3-yl)pyrazolo[5,1-b]thiazole-7-carboxamide] | 6 | 69.5 | > 7500 | –
Cc1ncc(C(=O)N2CC2CNC(C)(C)C)cc1NC(=O)c1cnn2cc(-c3cccc4c3cnn4C)sc12 (stereo not drawn) [Example 239, N-(5-(2-((tert-butylamino)methyl)aziridine-1-carbonyl)-2-methylpyridin-3-yl)-2-(1-methyl-1H-indazol-4-yl)pyrazolo[5,1-b]thiazole-7-carboxamide] | 78.7 | 349 | > 2500 | –
Cc1cc(C(=O)NCCCN2CCCC2(C)C)sc1NC(=O)c1cnn2cc(-c3cnn(C)c3)sc12 [Example 201, N-(5-((3-(2,2-dimethylpyrrolidin-1-yl)propyl)carbamoyl)-3-methylthiophen-2-yl)-2-(1-methyl-1H-pyrazol-4-yl)pyrazolo[5,1-b]thiazole-7-carboxamide] | 2450 | 1440 | > 7500 | –
Cc1ncc(C(=O)NCCN2CC3CCC2CC3)cc1NC(=O)c1cnn2cc(-c3cnn(C4CC4)c3)sc12 [Example 181, N-(5-((2-(2-azabicyclo[2.2.2]octan-2-yl)ethyl)carbamoyl)-2-methylpyridin-3-yl)-2-(1-cyclopropyl-1H-pyrazol-4-yl)pyrazolo[5,1-b]thiazole-7-carboxamide] | 2.3 | 16.1 | > 7500 | –
Cc1ncc(C(=O)NC2CN(C(C)(C)C)C2)cc1NC(=O)c1cnn2cc(-c3cccc4c3cnn4C)sc12 [Example 238, N-(5-((1-(tert-butyl)azetidin-3-yl)carbamoyl)-2-methylpyridin-3-yl)-2-(1-methyl-1H-indazol-4-yl)pyrazolo[5,1-b]thiazole-7-carboxamide] | 7.5 | 181 | > 2500 | –
Cc1ncc(C(=O)NCCN2CC3CCC2C3)cc1NC(=O)c1cnn2cc(-c3cn(C)nc3C)sc12 (stereo not drawn) [Example 212, N-(5-((2-(2-azabicyclo[2.2.1]heptan-2-yl)ethyl)carbamoyl)-2-methylpyridin-3-yl)-2-(1,3-dimethyl-1H-pyrazol-4-yl)pyrazolo[5,1-b]thiazole-7-carboxamide] | 1.3 | 104 | > 7500 | –
Cc1ncc(C(=O)NCCN2CCCC2)cc1NC(=O)c1cnn2cc(-c3cnn(C)c3C)sc12 [Example 220, 2-(1,5-Dimethyl-1H-pyrazol-4-yl)-N-(2-methyl-5-((2-(pyrrolidin-1-yl)ethyl)carbamoyl)pyridin-3-yl)pyrazolo[5,1-b]thiazole-7-carboxamide] | 5 | 59 | > 7500 | –
